From patent US20240342186A1, “PYRIDINE DERIVATIVES WITH N-LINKED CYCLIC SUBSTITUENTS AS cGAS INHIBITORS” (Boehringer Ingelheim International GmbH, priority 2021, published 2024) come the findings set out here.

The structures appear in SMILES notation. Read-outs that look alike come from different tables or passages of the source.

The test system of test [1] is cGAMP-stimulated THP1-Dual cells (pathway directly downstream of cGAS). Put plainly: cGAMP stimulated counter cell assay: inhibition of IFN induction in cGAMP-stimulated THP1 cells (THP1(cGAMP) IC50). The test is classed as cell-based, human. Particulars: for IC50: Homo sapiens, THP1-Dual; for Ratio THP1(cGAMP) IC50 / THP1(vir) IC50: selectivity for cGAS inhibition. From the text: (§1) 6.2 Method: Human cGAS Cell Assay and cGAMP Stimulated Counter Cell Assay (THP1(vir) IC50 and THP1(cGAMP) IC50)
(§2) THP1-Dual™ cells (InvivoGen #thpd-nfis) expressing IRF dependent Lucia luciferase reporter were used as basis for both assays. For the detection of cellular cGAS activity cells were stimulated by a baculovirus (pFastbac-1, Invitrogen, no coding insert) infection that delivers the cGAS enzyme stimulating double-stranded DNA (measurement of THP1(vir) IC50).
(§3) For the counter assay, cells were stimulated by cGAMP (SigmaAldrich #SML1232) to activate the identical pathway independent and directly downstream of cGAS (measurement of THP1(cGAMP) IC50). Pathway activity was monitored by measuring the Lucia luciferase activity induced by either DNA stimulated cGAS enzyme activity (measurement of THP1(vir) IC50) or by cGAMP directly (measurement of THP1(cGAMP) IC50, counter assay).
(§4) Compounds were delivered in 10 mM DMSO solution, serially diluted and transferred to the 384 well assay plate (Greiner #781201) using an Echo acoustic dispenser. Typically, 8 concentrations were used with the highest concentration at 10 μM in the final assay volume followed by ˜1:5 dilution steps. DMSO concentration was set to 1% in the final assay volume. The 384 well assay plate contained 21 test compounds (column 1-22), and DMSO in column 23 and 24.
(§5) Cells, cultivated according to manufacturer conditions, were harvested by centrifugation at 300 g/10 min and were then resuspended and diluted to 1.66E5 cells/ml in fresh cell culture medium (RPMI 1640 (Gibco #A10491-01), 10% FCS (Gibco #10500), 1× GlutaMax (Gibco #35050-061), 1× Pen/Strep solution (Gibco #15140-122), 100 μg/ml Normocin (InvivoGen #ant-nr), 100 μg/ml Zeocin (InvivoGen #ant-zn), 10 μg/ml Blasticidin S (Life Technologies #A11139-03)). The baculovirus solution was then added 1:200 (have varied according to virus batch) to the cells (measurement of THP1(vir) IC50).
(§6) 30 μL of the cell/virus-mix were added to each well of the compound plate from column 1-23 via MultiDrop Combi dispenser (5000 cells/well). In column 24, 30 μl/5000 cells/well without virus were added as a low control.
(§7) The plates were then incubated for 18 h at 37° C. in a humidified incubator.
(§8) Following that, 15 μl of QuantiLuc detection reagent (InvivoGen #rep-qlcg5) were added to each well using a MultiDrop Combi. Measurement was done immediately after the addition using an EnVision reader (US-luminescence read-mode).
(§9) For data evaluation and calculation, the measurement of the low control was set as 0% control and the measurement of the high control was set as 100% control. The IC50 values were calculated using the standard 4 parameter logistic regression formula. Calculation: [y=(a−d)/(1+(x/c)^b)+d], a=low value, d=high value; x=conc M; c=IC50 M; b=slope

Test [2] relates to cellular cGAS activity in dsDNA-stimulated human whole blood. Put plainly: Human whole blood assay (hWB IC50): IFNα2α production after dsDNA transfection. The test is classed as cell-based. Particulars: inhibition of IFN induction in dsDNA-stimulated human whole blood. The method, then:
6.3 Method: Human Whole Blood Assay (Human WB IC50)
For the detection of cellular cGAS activity human whole blood was stimulated by transfection with double stranded DNA. Pathway activity was monitored by measuring the IFNα2α production.
Compounds were delivered as 10 mM DMSO solution and serially diluted and transferred to the 96-well cell culture plate (Corning #3595), prefilled with 20 μl OptiMEM (Gibco, #11058-021) in each well, using an Echo acoustic dispenser. Typically, 8 concentrations were used with the highest concentration at 10 µM in the final assay volume followed by ˜1:5 dilution steps. DMSO concentration was set to 0.1% in the final assay volume. The 96-well assay plate contained 10 test compounds, and DMSO in control wells.
Collection of human whole blood from 3 or more healthy donors (male or female, no medication for 7 days except contraceptive and thyroxine) as Na-Citrate blood (e.g. 3.8% in Monovettes from Sarstedt) was conducted in parallel. Whole blood was kept at room temperature for a maximum of 3 hours after collection until use in the assay.
160 μl of the whole blood samples was transferred to each well of the 96-well assay plates filled with compound/OptiMEM. All assay plates were prepared as duplicates with blood from different donors. Blood plates were kept at room temperature for 60 minutes and continuous shaking with 450 rpm, covered with the lid, but not sealed.
20 μl OptiMEM and 9.6:1 Fugene was added to all low control wells.
After covering assay plates with aera seals and the lid, blood plates were kept at room temperature for 30 minutes and continuous shaking with 450 rpm, followed by an overnight incubation of 22 h at 37° C. in the incubator, without shaking.
For the detection of IFNα-2α in human plasma, the biotinylated capture antibody (Antibody set IFNA2, Meso Scale Diagnostics #B21VH-3, including coating and capture antibody) was diluted 1:17.5 in Diluent 100 (Meso Scale Diagnostics #R^50AA-4), according to the manufacturer's directions. U-Plex MSD GOLD 96-well Small Spot Strepavidin SECTOR Plates (Meso Scale Diagnostics #L45SA-5) were coated with 25 μl diluted capture antibody. Coated plates were incubated for 60 min at room temperature under continuous shaking at 700 rpm. MSD IFNα-2α plates were washed three times with 150 μl wash buffer (1x HBSS, 0.05% Tween).
After blocking the plates with 100 μl block solution/well (1x HBSS with 0.2% Tween, 2% BSA) for 60 min at room temperature and continuous shaking at 700 rpm, plates were emptied as dry as possible by dumping just before continuing with the human plasma.
Whole Blood assay plates were centrifuged at 1600 rpm for 10 minutes. 25 μl of supernatant was transferred with a pipetting robot from each whole blood plate to the corresponding IFNα-2α plate. Plates were sealed with microplate seals and kept at room temperature again under continuous shaking at 700 rpm for two hours.
Next MSD IFNα-2α plates were washed three times with 150 μl wash buffer (1×HBSS, 0.05% Tween), before adding 25 μl MSD SULFO-TAG IFNα-2α Antibody solution (1:100 diluted in Diluent 3 (Meso Scale Diagnostics #R50AP-2) to each well of the plates.
Afterwards plates were sealed with microplate seals and kept at room temperature again under continuous shaking at 700 rpm for two hours. Finally, MSD IFNα-2α plates were washed three times with 150 μl wash buffer (1×HBSS, 0.05% Tween). 150 μl 2× Read buffer was added to each well and plates were immediately measured with the MSD Sector S600 Reader using the vendor barcode.
For data evaluation and calculation, % control calculation of each well was based on the mean of high (DNA stimulated control) and mean of low (unstimulated control) controls by using the following formula:
[counts(sample)−counts(low))/(counts(high)−counts(low))]*100
The IC50 values were calculated using the standard 4 parameter logistic regression formula. Calculation: [y=(a−d)/(1+(x/c)^b)+d], a=low value, d=high value; x=conc M; c=IC50 M; b=slope

For test [3], the system named is cellular cGAS activity in baculovirus-stimulated THP1-Dual cells (IRF dependent Lucia luciferase reporter). Put plainly: Human cGAS cell assay: inhibition of IFN induction in virus-stimulated THP1 cells (THP1(vir) IC50). The test is classed as cell-based. Particulars: Homo sapiens, THP1-Dual.
From the text: as §1, §2, §3, §4, §5, §6, §7, §8, §9

The target in test [4] is cGAS (Homo sapiens (Human), UniProt Q8N884). Put plainly: Human cGAS enzyme assay (hcGAS IC50, in vitro), cGAMP formation by RapidFire MS.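 Also: enzyme activated by 45 bp dsDNA with GTP and ATP (30 µM each), 60 min compound pre-incubation then 90 min reaction, cGAMP relative to cyclic-di-GMP internal standard, 8-point dilutions up to 10 µM.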 Format: biochemical. Particulars: biochemical (in vitro) cGAS inhibition.
Setting [5] is: inhibition of IFN induction in cGAMP-stimulated THP1 cells, read-out: THP1(cGAMP) IC50 (converted).
Where [6] appears, read: inhibition of IFN induction in virus-stimulated THP1 cells, read-out: THP1(vir) IC50.
Setting [7] is: read-out: THP1(vir) IC50, virus-stimulated THP1 cells, IFN induction.
[8] abbreviates: cGAMP-stimulated THP1 cells, counter assay, read-out: THP1(cGAMP) IC50 (converted).

cGAS, sequence (Q8N884 whole entry): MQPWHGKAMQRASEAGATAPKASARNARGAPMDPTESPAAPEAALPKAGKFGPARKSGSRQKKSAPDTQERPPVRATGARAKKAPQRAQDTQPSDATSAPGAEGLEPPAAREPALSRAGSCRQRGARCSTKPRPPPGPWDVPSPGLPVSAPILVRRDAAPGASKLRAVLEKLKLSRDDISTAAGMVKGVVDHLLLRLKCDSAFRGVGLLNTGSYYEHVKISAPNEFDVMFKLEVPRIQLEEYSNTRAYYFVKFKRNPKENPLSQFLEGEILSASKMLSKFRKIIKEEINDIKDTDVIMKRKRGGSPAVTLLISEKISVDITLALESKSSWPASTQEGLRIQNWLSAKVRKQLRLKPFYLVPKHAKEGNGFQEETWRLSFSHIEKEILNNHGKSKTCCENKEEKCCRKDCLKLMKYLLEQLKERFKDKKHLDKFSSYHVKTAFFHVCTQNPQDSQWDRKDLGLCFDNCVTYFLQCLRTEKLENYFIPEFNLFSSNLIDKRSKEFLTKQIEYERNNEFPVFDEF

As usually defined, the IC50 is the midpoint of a concentration-inhibition curve. On to `CC1(C#N)CCCN(c2cc(Cl)cnc2O[C@H]2C[C@@H](C(=O)O)N(c3nc(C(F)F)nc4c3oc3ccccc34)C2)C1` (stereo partly shown) [Example 1.04], for which the concentration for half-maximal inhibition (IC50) in test [1] (setting [5]) is 10000 nM; in test [2] it was 3700 nM; in test [3] (setting [6]), 327 nM. In test [1], the “Ratio THP1(cGAMP) IC50 / THP1(vir) IC50” value is 31.

Take `C[C@@H]1OCCN(c2cc(Cl)cnc2O[C@H]2C[C@@H](C(=O)O)N(c3nc(C(F)(F)F)nc4c3oc3ccccc34)C2)[C@H]1C` [Example 1.06]: the IC50 was 14300 nM in test [1] (setting [5]), 65 nM in test [4] and 951 nM in test [3] (setting [6]). Besides, the “Ratio THP1(cGAMP) IC50 / THP1(vir) IC50” value in test [1] stood at 15.

Consider `Cc1nc(N2C[C@@H](CC(=O)Nc3ccncc3)C[C@H]2C(=O)O)c2oc3ccccc3c2n1` [Example 28, reference compound], for which the 50% inhibitory concentration (IC50) in test [3] (setting [7]) is over 32000 nM.

With `Cc1nc(N2C[C@@H](Nc3ccncc3)C[C@H]2C(=O)O)c2oc3ccccc3c2n1` [Example 38, reference compound], the IC50 in test [1] (setting [8]) is over 17000 nM.

For `C[C@@H]1N(c2cc(-c3ccnc(N(C)C)c3)cnc2O[C@H]2C[C@@H](C(=O)O)N(c3nc(C(F)F)nc4c3oc3ccccc34)C2)CCOC12COC2` [Example 4.01, (2S,4S)-1-[4-(Difluoromethyl)-8-oxa-3,5-diazatricyclo[7.4.0.0^2,7]trideca-1(9),2(7),3,5,10,12-hexaen-6-yl]-4-({N,N-dimethyl-5-[(9S)-9-methyl-2,5-dioxa-8-azaspiro[3.5]nonan-8-yl]-[3,4′-bipyridin]-2′-yl}oxy)pyrrolidine-2-carboxylic acid], the IC50 in test [1] (read-out: THP1(cGAMP) IC50) is 6680 nM; in test [2], 5 nM; in test [3] (read-out: THP1(vir) IC50, inhibition of IFN induction in virus-stimulated THP1 cells) it was under 5 nM.

Regarding `CC(C)(C(=O)N[C@H]1C[C@@H](C(=O)O)N(c2nc(C(F)(F)F)nc3c2oc2ccccc23)C1)c1cn[nH]c1` [Example 58, reference compound], in test [3] (setting [7]), the 50% inhibitory concentration (IC50) amounted to 21000 nM.

On to `N#CC1CN(c2cc(Cl)cnc2O[C@H]2C[C@@H](C(=O)O)N(c3nc(C(F)(F)F)nc4c3oc3ccccc34)C2)CCO1` (stereo partly drawn) [Example 1.01, (2S,4S)-4-{[5-Chloro-3-(2-cyanomorpholin-4-yl)pyridin-2-yl]oxy}-1-[4-(trifluoromethyl)-8-oxa-3,5-diazatricyclo[7.4.0.0^2,7]trideca-1(13),2,4,6,9,11-hexaen-6-yl]pyrrolidine-2-carboxylic acid], for which the 50% inhibitory concentration (IC50) is 24600 nM in test [1] (setting [5]), 8 nM in test [4] and 829 nM in test [3] (setting [6]). Besides, the “Ratio THP1(cGAMP) IC50 / THP1(vir) IC50” value in test [1] is reported as 30.

As to `O=C(O)[C@@H]1C[C@H](Oc2ncc(Cl)cc2N2CCc3nocc3C2)CN1c1nc(C(F)F)nc2c1oc1ccccc12` [Example 1.08], the results for the half-inhibitory concentration (IC50) in test [1] (setting [5]), in test [4] and in test [3] (setting [6]) were 18700 nM, 4 nM and 831 nM, respectively. The “Ratio THP1(cGAMP) IC50 / THP1(vir) IC50” value in test [1] turned out to be 23.

For `C#Cc1cnc(O[C@H]2C[C@@H](C(=O)O)N(c3nc(C)nc4c3oc3ccccc34)C2)c(N2CCOC3(COC3)[C@@H]2C)c1` [Example 2.03], the IC50 in test [1] (setting [5]) is 16400 nM; in test [2], 9 nM; in test [3] (setting [6]) it was under 5 nM.

For `O=C(O)[C@@H]1C[C@H](Oc2ncc(Cl)cc2N2CCc3nocc3C2)CN1c1nc(C(F)(F)F)nc2c1oc1ccccc12` [Example 1.07], the half-maximal inhibitory concentration (IC50) in test [1] (setting [5]) is 18700 nM; in test [4], 5 nM; in test [3] (setting [6]), 781 nM. Besides, in test [1], the “Ratio THP1(cGAMP) IC50 / THP1(vir) IC50” value amounted to 24.

Regarding `C#Cc1cnc(O[C@H]2C[C@@H](C(=O)O)N(c3nc(C(F)F)nc4c3oc3ccccc34)C2)c(N2CCOC3(COC3)[C@@H]2C)c1` [Example 1.11], the half-maximal inhibitory concentration (IC50) in test [1] (setting [5]) is 18500 nM; in test [2], 5 nM; in test [3] (setting [6]), 6 nM.

Regarding `O=C(O)[C@@H]1C[C@H](Oc2ncc(Br)cc2N2CCOC3(COC3)C2)CN1c1nc(C(F)F)nc2c1oc1ccccc12` [Example 1.24], the 50% inhibitory concentration (IC50) in test [1] (setting [5]) was over 16600 nM; in test [2] it was 850 nM; in test [3] (setting [6]) it was 848 nM. Besides, the “Ratio THP1(cGAMP) IC50 / THP1(vir) IC50” value in test [1] is reported as over 20.

On to `C#Cc1cnc(O[C@H]2C[C@@H](C(=O)O)N(c3nc(Cl)nc4c3oc3ccccc34)C2)c(N2CCOC[C@@H]2C)c1` [Example 1.32], for which the results for the IC50 in test [4] and in test [3] (setting [6]) were 4 nM and 487 nM, respectively.

With `Cc1nc(N2CCC[C@H]2C(=O)O)c2oc3ccccc3c2n1` [Example 15, reference compound], the IC50 in test [1] (setting [8]) is over 17000 nM.

Turning to `C[C@@H]1N(c2cc(-c3cccnc3C#N)cnc2O[C@H]2C[C@@H](C(=O)O)N(c3nc(C(F)(F)F)nc4c3oc3ccccc34)C2)CCOC12COC2` [Example 3.28], the IC50 in test [1] (setting [5]) is 16400 nM; in test [4], 14 nM; in test [3] (setting [6]) it was 712 nM. Besides, the “Ratio THP1(cGAMP) IC50 / THP1(vir) IC50” value in test [1] was 23.
